Source: ChEMBL document CHEMBL5550084, “Ferroptosis and its modulators: A raising target for cancer and Alzheimer's disease” (Bioorg Med Chem, 2024)

Columns and labels:
[1] = Growth inhibition of human BJeLR cell by Trypan blue staining based analysis; format: toxicity; conditions: BJeLR cells
[2] = biological target: T1, Cystine/glutamate transporter (Homo sapiens, UniProt Q9UPY5); test: Inhibition of Xc- in human HT-1080 cells assessed as decrease in glutamate release incubated for 2 hrs by Amplex red assay; format: cell-based
T1 sequence (Q9UPY5 whole entry): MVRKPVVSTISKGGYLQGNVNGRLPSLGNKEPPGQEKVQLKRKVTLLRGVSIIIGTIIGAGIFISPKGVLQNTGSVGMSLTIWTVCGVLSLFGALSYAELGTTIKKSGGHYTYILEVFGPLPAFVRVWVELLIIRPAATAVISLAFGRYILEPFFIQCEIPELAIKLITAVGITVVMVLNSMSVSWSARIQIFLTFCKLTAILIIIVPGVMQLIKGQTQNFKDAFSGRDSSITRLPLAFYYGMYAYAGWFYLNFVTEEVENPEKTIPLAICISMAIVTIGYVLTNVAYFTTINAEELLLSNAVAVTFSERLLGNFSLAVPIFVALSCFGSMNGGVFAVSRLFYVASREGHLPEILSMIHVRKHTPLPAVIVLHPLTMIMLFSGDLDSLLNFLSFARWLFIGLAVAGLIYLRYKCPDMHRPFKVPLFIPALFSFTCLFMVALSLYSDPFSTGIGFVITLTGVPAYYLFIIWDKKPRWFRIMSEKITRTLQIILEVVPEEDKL

Structure (SMILES)	GI50 [1] [µM]	IC50 [2] [µM]
CC(C)Oc1ccc(C(=O)CN2CCN(C)CC2)cc1-n1c(CN2CCN(C(=O)COc3ccc(Cl)cc3)CC2)nc2ccccc2c1=O	0.474	0.3
CC(C)Oc1ccc(C=O)cc1-n1c(CN2CCN(C(=O)COc3ccc(Cl)cc3)CC2)nc2ccccc2c1=O	0.008	–
CC(C)Oc1ccncc1-n1c(CN2CCN(C(=O)COc3ccc(Cl)cc3)CC2)nc2ccccc2c1=O	> 0.01	–
CC(C)Oc1ccc(CN2CCNCC2)cc1-n1c(CN2CCN(C(=O)COc3ccc(Cl)cc3)CC2)nc2ccccc2c1=O	0.0009	–
CC(C)Oc1ccc(CN2CCOCC2)cc1-n1c(CN2CCN(C(=O)COc3ccc(Cl)cc3)CC2)nc2ccccc2c1=O	0.00013	–
CC(C)Oc1ccc(C(=O)CN2CCOCC2)cc1-n1c(CN2CCN(C(=O)COc3ccc(Cl)cc3)CC2)nc2ccccc2c1=O	0.427	0.01
CCOc1ccccc1-n1c(C(C)N2CCN(C(=O)COc3ccc(Cl)cc3)CC2)nc2ccccc2c1=O (centres undefined) [ERASTIN]	0.0017	–
